From patent US8022099B2, “N-benzyl pyrrolidine derivatives” (Hoffmann-La Roche Inc., priority 2008, dated 2011) come the findings set out here.

The Ki is the dissociation constant of the complex between target and ligand, obtained from inhibition or displacement.

This test has as its target T1, human NK3 receptor (Homo sapiens, UniProt P29371).
T1 construct: expressed in transfected cells; host or cells: HEK293 cells (transient expression), membrane preparation
T1 sequence (P29371 1-465): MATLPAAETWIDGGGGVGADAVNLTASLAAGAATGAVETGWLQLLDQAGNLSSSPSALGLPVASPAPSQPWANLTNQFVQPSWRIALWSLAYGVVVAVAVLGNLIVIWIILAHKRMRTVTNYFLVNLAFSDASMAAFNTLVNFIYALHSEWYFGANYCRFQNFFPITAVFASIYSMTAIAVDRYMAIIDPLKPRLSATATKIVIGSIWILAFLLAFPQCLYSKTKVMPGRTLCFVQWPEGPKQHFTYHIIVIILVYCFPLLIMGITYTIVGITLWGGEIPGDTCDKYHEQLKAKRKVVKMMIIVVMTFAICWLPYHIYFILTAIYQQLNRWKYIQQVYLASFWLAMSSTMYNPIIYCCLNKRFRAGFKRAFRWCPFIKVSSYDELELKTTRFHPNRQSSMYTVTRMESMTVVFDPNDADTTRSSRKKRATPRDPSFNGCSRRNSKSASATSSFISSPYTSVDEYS
Put plainly: [3H]SR142801 competition binding assay. Conditions: hNK3 receptor binding, [3H]SR142801, membranes from HEK293 cells transiently expressing recombinant human NK3 receptor. In a few lines:
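Membranes from HEK293 cells transiently expressing human NK3 were incubated 75 min at RT with [3H]SR142801 at its KD and inhibitor (0.0003-10 μM) in Tris-HCl pH 7.4/MnCl2/phosphoramidon/BSA. Nonspecific binding used 10 μM SB222200. Ki from Hill-fitted IC50 via Cheng-Prusoff, duplicate determinations.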
With `CN(C)CCCN1CCN(C(=O)N2C[C@H](c3ccc(Cl)c(Cl)c3)[C@@H](N(C)Cc3ccc(C(F)(F)F)c(F)c3)C2)CC1` (racemic) [Example 74, {(3SR,4RS)-3-(3,4-Dichloro-phenyl)-4-[(3-fluoro-4-trifluoromethyl-benzyl)-methyl-amino]-pyrrolidin-1-yl}-[4-(3-dimethylamino-propyl)-piperazin-1-yl]-methanone], the Ki is 5.4 nM.

With `CN(C)CCN1CCN(C(=O)N2C[C@H](c3ccc(Cl)c(Cl)c3)[C@@H](N(C)Cc3ccc(C(F)(F)F)c(F)c3)C2)CC1` (racemic) [Example 75, {(3SR,4RS)-3-(3,4-Dichloro-phenyl)-4-[(3-fluoro-4-trifluoromethyl-benzyl)-methyl-amino]-pyrrolidin-1-yl}-[4-(2-dimethylamino-ethyl)-piperazin-1-yl]-methanone], the Ki is 4.6 nM.

For the compound `CN(Cc1ccc(C(F)(F)F)c(F)c1)[C@H]1CN(C(=O)N2CCN(S(=O)(=O)N(C)C)CC2)C[C@@H]1c1ccc(Cl)c(Cl)c1` (racemic) [Example 76, 4-{(3SR,4RS)-3-(3,4-Dichloro-phenyl)-4-[(3-fluoro-4-trifluoromethyl-benzyl)-methyl-amino]-pyrrolidine-1-carbonyl}-piperazine-1-sulfonic acid dimethylamide], the Ki is 1.8 nM.

For the compound `COc1cccc(N2CCN(C(=O)N3C[C@H](c4ccc(Cl)c(Cl)c4)[C@@H](N(C)Cc4ccc(C(F)(F)F)c(F)c4)C3)CC2)n1` (racemic) [Example 77, {(3SR,4RS)-3-(3,4-Dichloro-phenyl)-4-[(3-fluoro-4-trifluoromethyl-benzyl)-methyl-amino]-pyrrolidin-1-yl}-[4-(6-methoxy-pyridin-2-yl)-piperazin-1-yl]-methanone], the Ki was determined as 26.8 nM.

In the case of `CCN(CC)C(=O)N1CCN(C(=O)N2C[C@H](c3ccc(Cl)c(Cl)c3)[C@@H](N(C)Cc3ccc(C(F)(F)F)c(F)c3)C2)CC1` (racemic) [Example 78, 4-{(3SR,4RS)-3-(3,4-Dichloro-phenyl)-4-[(3-fluoro-4-trifluoromethyl-benzyl)-methyl-amino]-pyrrolidine-1-carbonyl}-piperazine-1-carboxylic acid diethylamide], the Ki stood at 4.8 nM.

With `CN(Cc1ccc(C(F)(F)F)c(F)c1)[C@H]1CN(C(=O)N2CCN(CCC#N)CC2)C[C@@H]1c1ccc(Cl)c(Cl)c1` (racemic) [Example 79, 3-(4-{(3SR,4RS)-3-(3,4-Dichloro-phenyl)-4-[(3-fluoro-4-trifluoromethyl-benzyl)-methyl-amino]-pyrrolidine-1-carbonyl}-piperazin-1-yl)-propionitrile], the Ki worked out at 1.9 nM.

As for `CN(Cc1ccc(C(F)(F)F)c(F)c1)[C@H]1CN(C(=O)N2CCC(O)(c3ccncc3)CC2)C[C@@H]1c1ccc(Cl)c(Cl)c1` (racemic) [Example 80, {(3SR,4RS)-3-(3,4-Dichloro-phenyl)-4-[(3-fluoro-4-trifluoromethyl-benzyl)-methyl-amino]-pyrrolidin-1-yl}-(4-hydroxy-3,4,5,6-tetrahydro-2H-[4,4′]bipyridinyl-1-yl)-methanone], the Ki amounted to 20.8 nM.

As for `CN(Cc1ccc(C(F)(F)F)c(F)c1)[C@H]1CN(C(=O)N2CCN(S(C)(=O)=O)CC2)C[C@@H]1c1ccc(Cl)c(F)c1` (racemic) [Example 81, {(3SR,4RS)-3-(4-Chloro-3-fluoro-phenyl)-4-[(3-fluoro-4-trifluoromethyl-benzyl)-methyl-amino]-pyrrolidin-1-yl}-(4-methanesulfonyl-piperazin-1-yl)-methanone], the Ki is 14.6 nM.

For the compound `CN(Cc1ccc(C(F)(F)F)c(F)c1)[C@H]1CN(C(=O)N2CCCN(S(C)(=O)=O)CC2)C[C@@H]1c1ccc(Cl)c(F)c1` (racemic) [Example 82, {(3SR,4RS)-3-(4-Chloro-3-fluoro-phenyl)-4-[(3-fluoro-4-trifluoromethyl-benzyl)-methyl-amino]-pyrrolidin-1-yl}-(4-methanesulfonyl-[1,4]diazepan-1-yl)-methanone], the Ki came to 39.7 nM.

On to `CN(Cc1ccc(C(F)(F)F)cc1)[C@H]1CN(C(=O)N2CCN(S(C)(=O)=O)CC2)C[C@@H]1c1ccc(Cl)c(Cl)c1` (racemic) [Example 83, {(3SR,4RS)-3-(3,4-Dichloro-phenyl)-4-[methyl-(4-trifluoromethyl-benzyl)-amino]-pyrrolidin-1-yl}-(4-methanesulfonyl-piperazin-1-yl)-methanone], for which the Ki was 6 nM.

Turning to `CN(Cc1ccc(C(F)(F)F)cc1)[C@H]1CN(C(=O)CCCCN2CCOCC2)C[C@@H]1c1ccc(Cl)c(Cl)c1` (racemic) [Example 84, 1-{(3SR,4RS)-3-(3,4-Dichloro-phenyl)-4-[methyl-(4-trifluoromethyl-benzyl)-amino]-pyrrolidin-1-yl}-5-morpholin-4-yl-pentan-1-one], the Ki was 15.5 nM.

`CNCCCCC(=O)N1C[C@H](c2ccc(Cl)c(Cl)c2)[C@@H](N(C)Cc2ccc(C(F)(F)F)c(F)c2)C1` (racemic) [Example 86, 1-{(3SR,4RS)-3-(3,4-Dichloro-phenyl)-4-[(3-fluoro-4-trifluoromethyl-benzyl)-methyl-amino]pyrrolidin-1-yl}-5-methylamino-pentan-1-one]: the inhibition constant (Ki) came to 97.6 nM.

As to `CN(C)CCCCC(=O)N1C[C@H](c2ccc(Cl)c(Cl)c2)[C@@H](N(C)Cc2ccc(C(F)(F)F)c(F)c2)C1` (racemic) [Example 87, 1-{(3SR,4RS)-3-(3,4-Dichloro-phenyl)-4-[(3-fluoro-4-trifluoromethyl-benzyl)-methyl-amino]-pyrrolidin-1-yl}-5-dimethylamino-pentan-1-one], the Ki came to 51.2 nM.

On to `CN(Cc1ccc(C(F)(F)F)c(F)c1)[C@H]1CN(C(=O)CCCCN2CCNCC2)C[C@@H]1c1ccc(Cl)c(Cl)c1` (racemic) [Example 88, 1-{(3SR,4RS)-3-(3,4-Dichloro-phenyl)-4-[(3-fluoro-4-trifluoromethyl-benzyl)-methyl-amino]-pyrrolidin-1-yl}-5-piperazin-1-yl-pentan-1-one], for which the Ki was determined as 24.7 nM.

Turning to `CN1CCN(CCCCC(=O)N2C[C@H](c3ccc(Cl)c(Cl)c3)[C@@H](N(C)Cc3ccc(C(F)(F)F)c(F)c3)C2)CC1` (racemic) [Example 89, 1-{(3SR,4RS)-3-(3,4-Dichloro-phenyl)-4-[(3-fluoro-4-trifluoromethyl-benzyl)-methyl-amino]-pyrrolidin-1-yl}-5-(4-methyl-piperazin-1-yl)-pentan-1-one], the Ki amounted to 26.9 nM.

Consider `CN(Cc1ccc(C(F)(F)F)c(F)c1)[C@H]1CN(C(=O)CCCCN2CCN(S(=O)(=O)N(C)C)CC2)C[C@@H]1c1ccc(Cl)c(Cl)c1` (racemic) [Example 90, 4-(5-{(3SR,4RS)-3-(3,4-Dichloro-phenyl)-4-[(3-fluoro-4-trifluoromethyl-benzyl)-methyl-amino]-pyrrolidin-1-yl}-5-oxo-pentyl)-piperazine-1-sulfonic acid dimethylamide], for which the Ki amounted to 8.6 nM.

Consider `CN(Cc1ccc(C(F)(F)F)c(F)c1)[C@H]1CN(C(=O)CCCCn2ccnc2)C[C@@H]1c1ccc(Cl)c(Cl)c1` (racemic) [Example 91, 1-{(3SR,4RS)-3-(3,4-Dichloro-phenyl)-4-[(3-fluoro-4-trifluoromethyl-benzyl)-methyl-amino]-pyrrolidin-1-yl}-5-imidazol-1-yl-pentan-1-one], for which the Ki was determined as 57.2 nM.

Regarding `CN(Cc1ccc(C(F)(F)F)c(F)c1)[C@H]1CN(C(=O)CCCCN2CCCC2)C[C@@H]1c1ccc(Cl)c(Cl)c1` (racemic) [Example 92, 1-{(3SR,4RS)-3-(3,4-Dichloro-phenyl)-4-[(3-fluoro-4-trifluoromethyl-benzyl)-methyl-amino]-pyrrolidin-1-yl}-5-pyrrolidin-1-yl-pentan-1-one], the Ki stood at 46.6 nM.

In the case of `CN(Cc1ccc(C(F)(F)F)c(F)c1)[C@H]1CN(C(=O)CCCCC(=O)c2ccccn2)C[C@@H]1c1ccc(Cl)c(Cl)c1` (racemic) [Example 95, 1-{(3SR,4RS)-3-(3,4-Dichloro-phenyl)-4-[(3-fluoro-4-trifluoromethyl-benzyl)-methyl-amino]-pyrrolidin-1-yl}-6-pyridin-2-yl-hexane-1,6-dione], the Ki amounted to 24.3 nM.

With `CN(Cc1ccc(C(F)(F)F)c(F)c1)[C@H]1CN(C(=O)CCCCC(N)=O)C[C@@H]1c1ccc(Cl)c(Cl)c1` (racemic) [Example 98, 6-{(3SR,4RS)-3-(3,4-Dichloro-phenyl)-4-[(3-fluoro-4-trifluoromethyl-benzyl)-methyl-amino]-pyrrolidin-1-yl}-6-oxo-hexanoic acid amide], the Ki worked out at 52.7 nM.

`CN(Cc1ccc(C(F)(F)F)c(F)c1)[C@H]1CN(C(=O)CCCCC#N)C[C@@H]1c1ccc(Cl)c(Cl)c1` (racemic) [Example 102, 6-{(3SR,4RS)-3-(3,4-Dichloro-phenyl)-4-[(3-fluoro-4-trifluoromethyl-benzyl)-methyl-amino]-pyrrolidin-1-yl}-6-oxo-hexanenitrile]: the Ki came out at 70.8 nM.

`CC(=O)NC1CCN(CCCCC(=O)N2C[C@H](c3ccc(Cl)c(Cl)c3)[C@@H](N(C)Cc3ccc(C(F)(F)F)c(F)c3)C2)CC1` (racemic) [Example 105, N-[1-(5-{(3SR,4RS)-3-(3,4-Dichloro-phenyl)-4-[(3-fluoro-4-trifluoromethyl-benzyl)-methyl-amino]-pyrrolidin-1-yl}-5-oxo-pentyl)-piperidin-4-yl]-acetamide]: the Ki is 62.2 nM.
